The subject of one experiment is S. aureus ATCC 29213. Format: cell-based. Conditions: ATCC 29213, 18 h.
The next experiment deals with E. coli K12. It counts as cell-based. To be noted: K12, 18 h.
A further experiment deals with S. aureus / E. coli. To be noted: cited from earlier work.

The term MIC denotes the smallest concentration in the dilution series that meets the test's criterion for growth inhibition. Higher therefore signals a less susceptible organism.

Converted amounts (≈) assume the structure as drawn. Peptide text beside a SMILES is read from it.

In the case of `CC[C@H](C)[C@H](NC(=O)CN)C(=O)NCC(=O)N[C@@H](CCCCN)C(=O)N[C@@H](Cc1ccccc1)C(=O)N[C@@H](CC(C)C)C(=O)N[C@@H](CCCCN)C(=O)N[C@@H](CCCCN)C(=O)N[C@@H](C)C(=O)N[C@@H](CCCCN)C(=O)N[C@@H](CCCCN)C(=O)N[C@@H](Cc1ccccc1)C(=O)NCC(=O)N[C@@H](CCCCN)C(=O)N[C@@H](C)C(=O)N[C@@H](Cc1ccccc1)C(=O)N[C@H](C(=O)N[C@@H](CCCCN)C(=O)N[C@H](C(=O)N[C@@H](CC(C)C)C(=O)N[C@@H](CCCCN)C(=O)N[C@@H](CCCCN)C(N)=O)[C@@H](C)CC)C(C)C` [MSI-78] (H-GIGKFLKKAKKFGKAFVKILKK-NH2), the MIC against S. aureus ATCC 29213 worked out at 12.5 µg/mL (≈ 5.05 µM).

For `CC[C@H](C)[C@H](NC(=O)[C@H](CCCCN)NC(=O)CNC(=O)[C@H](C)NC(=O)[C@@H](NC(=O)[C@H](CCCCN)NC(=O)[C@H](C)NC(=O)[C@@H](NC(=O)[C@H](CCCCN)NC(=O)CNC(=O)[C@H](C)NC(=O)[C@@H](NC(=O)[C@H](CCCCN)NC(=O)[C@H](C)NC(=O)[C@@H](NC(=O)[C@H](CCCCN)NC(=O)CNC(=O)[C@H](C)NC(=O)[C@@H](NC(=O)[C@@H](N)CCCCN)[C@@H](C)CC)[C@@H](C)CC)[C@@H](C)CC)[C@@H](C)CC)[C@@H](C)CC)C(=O)N[C@@H](C)C(N)=O` [MSI-103] (H-KIAGKIAKIAGKIAKIAGKIA-NH2), the MIC came out at 1.6 µg/mL (≈ 0.776 µM) in the experiment with E. coli K12 and 25 µg/mL (≈ 12.1 µM) with S. aureus ATCC 29213.

For the compound Cateslytin, the “MIC S. aureus/MIC E. coli” value in the experiment on S. aureus / E. coli is reported as >3.

(Values after article PMC2868066 (Biochemistry, 2010).)
